Data set [1] has as its system intestinal permeability. To be noted: rodent model with gradual deterioration of insulin sensitivity and eventual onset of diabetes; oral gavage; change over time (FIG. 5).
Method: 100 μg of non-radioactive Cr-EDTA in aqueous solution was administered to C57BL/6 mice and Wistar rats by oral gavage. A urine sample from the animals was then collected 6-10 hours after administration.
The urine sample taken from the animal was incubated with strongly acidic cation exchange resin wherein the active group is nuclear sulfonic acid, e.g., 33% by volume slurry of DOWEX-50-H+® cation exchange resin equilibrated with distilled water at room temperature.
Naturally occurring background Cr ions in the urine were correspondingly bound to the resin. […] The samples were then centrifuged, with the supernatant containing the fraction of administered Cr-EDTA that crossed the intestinal barrier.
The supernatant was injected directly into a Gas Furnace Atomic Absorption Spectroscope (GFAAS) using a graphite tube. The GFAAS apparatus had been calibrated to yield the concentration of Cr in each sample.
For data set [2] the following is noted: aqueous solution about 2.5 mM; comprised of materials verified as being non-toxic by the FDA; cited from earlier work.

With `O=C(O)CN(CCN(CC(=O)O)CC(=O)O)CC(=O)O.[Cr]` [Cr-EDTA, chromium EDTA complex], the “ratio of Cr to creatinine in urine samples” value in data set [1] was “measurable increase”. The toxicity entry in data set [2] is recorded as “non-toxic”.

(Values after patent publication US20210140962A1, “COMPOUND AND METHOD OF MEASURING INTESTINAL PERMEABILITY AND LEAKY GUT” (priority 2017, published 2021).)
